Legend:
[1] = molecular target: T1, Lysine-specific demethylase 4C (Homo sapiens) (UniProt Q9H3R0); test: Inhibition of KDM4C (unknown origin) at 10 uM using methylated H3 peptide as substrate by chemiluminescence assay relative to control
T1 sequence (whole entry): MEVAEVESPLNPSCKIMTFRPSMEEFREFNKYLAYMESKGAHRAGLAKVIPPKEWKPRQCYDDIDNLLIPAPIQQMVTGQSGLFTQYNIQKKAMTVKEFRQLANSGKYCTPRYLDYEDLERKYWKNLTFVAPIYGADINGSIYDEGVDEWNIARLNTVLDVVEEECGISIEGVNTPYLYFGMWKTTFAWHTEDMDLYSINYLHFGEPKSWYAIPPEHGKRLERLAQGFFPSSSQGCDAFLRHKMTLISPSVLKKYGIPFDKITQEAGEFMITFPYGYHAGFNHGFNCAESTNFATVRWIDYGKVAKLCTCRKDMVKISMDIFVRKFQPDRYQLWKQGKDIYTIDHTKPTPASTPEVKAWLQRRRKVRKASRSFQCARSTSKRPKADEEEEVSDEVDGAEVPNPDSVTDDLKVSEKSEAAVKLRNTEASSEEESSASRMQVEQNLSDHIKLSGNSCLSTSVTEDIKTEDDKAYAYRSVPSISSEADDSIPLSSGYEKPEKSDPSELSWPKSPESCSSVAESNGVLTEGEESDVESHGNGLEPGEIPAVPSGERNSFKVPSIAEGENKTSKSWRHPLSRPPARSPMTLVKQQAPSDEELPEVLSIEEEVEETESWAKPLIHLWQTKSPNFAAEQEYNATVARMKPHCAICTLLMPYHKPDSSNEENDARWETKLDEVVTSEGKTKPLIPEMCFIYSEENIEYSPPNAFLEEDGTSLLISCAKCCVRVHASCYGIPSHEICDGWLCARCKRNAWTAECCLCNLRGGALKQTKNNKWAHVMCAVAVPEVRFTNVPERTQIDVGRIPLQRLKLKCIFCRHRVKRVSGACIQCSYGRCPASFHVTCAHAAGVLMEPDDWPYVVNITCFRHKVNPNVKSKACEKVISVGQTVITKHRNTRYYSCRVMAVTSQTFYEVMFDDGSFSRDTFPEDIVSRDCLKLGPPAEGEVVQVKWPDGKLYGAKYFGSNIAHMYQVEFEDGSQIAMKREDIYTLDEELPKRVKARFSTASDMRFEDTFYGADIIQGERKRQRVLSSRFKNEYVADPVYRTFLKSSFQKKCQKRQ

[2] = molecular target: T2, Lysine-specific demethylase 4C (Homo sapiens, UniProt Q9H3R0); test: Inhibition of KDM4C (unknown origin) using methylated H3 peptide as substrate by chemiluminescence assay
T2 sequence (Q9H3R0 whole entry): T1 sequence (whole entry)

[3] = Intrinsic clearance in mouse liver microsomes assessed per mg protein at 1 uM measured up to 60 mins in presence or absence of NADPH by LC-MS/MS analysis; format: ADME, Microsome; conditions: for microsomal CLint at 1 µM: liver microsomes, read-out: CLH
[4] = Substrate activity at P-gp in MDCK2-MDR1 cells at 10 uM incubated for 60 mins in presence or absence of 2 uM P-gp inhibitor elacridar by LC-MS/MS analysis; format: ADME, cell-based, Canis lupus familiaris; conditions: dog, mdck-mdr1, 1 h
P-gp [5] = test: Efflux ratio of permeability from basolateral to apical over apical to basolateral side in MDCK2-MDR1 cells MDCK2-MDR1 cells at 10 uM incubated for 60 mins in presence 2 uM P-gp inhibitor elacridar by LC-MS/MS analysis; format: ADME, cell-based, Canis lupus familiaris; conditions: dog, MDCK-MDR1, with elacridar 2 uM
A549 = test: Antiproliferative activity against human A549 cells assessed as reduction in cell growth measured after 72 hrs by Alamar blue assay; format: functional, cell-based; conditions: A549, 72 h
P-gp [6] = test: Permeability across apical to basolateral side in MDCK2-MDR1 cells at 10 uM incubated for 60 mins in presence 2 uM P-gp inhibitor elacridar by LC-MS/MS analysis; format: ADME, cell-based, Canis lupus familiaris; conditions: dog, MDCK-MDR1, with elacridar 2 uM; read-out: permeability
HepG2 = test: Antiproliferative activity against human HepG2 cells assessed as reduction in cell growth measured after 24 hrs by MTS assay; format: functional, cell-based; conditions: HepG2, 24 h
[7] = Electrochemical behavior of the compound assessed as reduction in redox potential; format: physicochemical

| Structure (SMILES) | inhibition [1] | IC50 ([2]; read-out: IC50) | microsomal CLint at 1 µM [3] | Activity [4] | efflux ratio at 1 h, 10 µM (P-gp [5]) | IC50 (A549) | Papp A→B at 1 h, 10 µM (P-gp [6]) | IC50 (HepG2) | Activity [7] | IC50 [2] | CLint ([3]; microsomes, 1 h, 1 µM) |
| --- | --- | --- | --- | --- | --- | --- | --- | --- | --- | --- | --- |
| CN(/N=C/c1ccc(F)cc1)c1cc(=O)n(C)c(=O)[nH]1 | > 70% | – | – | – | – | – | – | – | – | – | – |
| Cn1c(=O)nc2[nH]nc(-c3ccccc3)nc-2c1=O | – | 7630 nM | < 12.5 µL/min/mg | Not Active | < 2 | > 30000 nM | 35.5 ×10⁻⁶ cm/s | > 25000 nM | – | – | – |
| CN(/N=C/c1ccccc1)c1cc(=O)n(C)c(=O)[nH]1 | > 70% | – | – | – | – | – | – | – | Active | – | – |
| Cn1nc(-c2ccn(C)c(=O)c2)nc2c(=O)n(C)c(=O)nc1-2 | – | – | – | Active | < 2 | 8800 nM | 1.1 ×10⁻⁶ cm/s | 4500 nM | – | Not Active | 71.8 µL/min/mg |
| CN(C)c1ccccc1/C=N/N(C)c1cc(=O)n(C)c(=O)[nH]1 | 40 to 70% | – | – | – | – | – | – | – | – | – | – |
| CN(C)c1ccccc1-c1nc2c(=O)n(C)c(=O)nc-2n(C)n1 | – | 16 nM | < 12.5 µL/min/mg | Not Active | < 2 | 5700 nM | 18 ×10⁻⁶ cm/s | 2100 nM | – | – | – |
| Cn1nc(-c2ccccc2)nc2n(C)c(=O)nc1-2 | – | 12700 nM | 13.1 µL/min/mg | Not Active | < 2 | > 30000 nM | 40.6 ×10⁻⁶ cm/s | > 25000 nM | – | – | – |
| COc1ccc(-c2nc3c(=O)n(C)c(=O)nc-3n(C)n2)cc1 | – | 8 nM | < 12.5 µL/min/mg | Not Active | < 2 | 1100 nM | 34.5 ×10⁻⁶ cm/s | 800 nM | – | – | – |
| Cn1nc(-c2ccc(C#N)cc2)nc2c(=O)n(C)c(=O)nc1-2 | – | 11 nM | < 12.5 µL/min/mg | Not Active | < 2 | 1900 nM | 26.8 ×10⁻⁶ cm/s | 800 nM | – | – | – |
| Cn1nc(-c2ccncc2)nc2c(=O)n(C)c(=O)nc1-2 | – | 19 nM | 11.6 µL/min/mg | Not Active | < 2 | 4300 nM | 13.4 ×10⁻⁶ cm/s | 1800 nM | – | – | – |
